What follows are compounds tested on IRE1-XBP1s (XBP1-RLuc splicing reporter in HEK293 T-REx cells) (assay: IRE1-XBP1s activation assay (XBP1-RLuc splicing reporter, HEK293 T-REx cells, luminescence relative to thapsigargin)). Settings: 18 h, compound 10 μM, HEK293 T-REx XBP1-RLuc reporter cells, relative to thapsigargin (Tg) 500 nM, read-out: Activity (IRE1-XBP1s activation, luminescence as % signal relative to thapsigargin, % Tg).
Format: cell-based
Protocol: IRE1-XBP1s activation Assay: HEK293 T-REx cells stably expressing the XBP1-RLuc splicing reporter were treated with an IRE1-XBP1s activator provided herein (10 μM) in the presence or absence of the IRE1 active site inhibitor 4μ8C (32 μM) for 18 h. Luminescence was shown as the percentage signal relative to thapsigargin (Tg) (500 nM, 18 h).

Cc1cnc(OCCN(C)C(=O)Cn2cc(NC(=O)CCNc3ccc(F)nc3C)cn2)cn1 [Compound 240] and Cc1ncc(OCCN(C)C(=O)Cn2cc(NC(=O)CCNc3ccc(F)nc3C)cn2)cn1 [Compound 241] cannot be ordered by activation at 10 µM: < 30% for the first, < 30% for the second.

Cc1nc(F)ccc1NCCC(=O)Nc1cnn(CC(=O)N(C)CCOc2ccn(C)n2)c1 [Compound 242] and Cc1ccc(OCCN(C)C(=O)Cn2cc(NC(=O)CCNc3ccc(F)nc3C)cn2)cn1 [Compound 243] cannot be ordered by activation at 10 µM: < 30% for the first, < 30% for the second.

Cc1cnc(OCCN(C)C(=O)Cn2cc(NC(=O)CCNc3ccc(F)nc3C)cn2)nc1 [Compound 244] and Cc1nnc(OCCN(C)C(=O)Cn2cc(NC(=O)CCNc3ccc(F)nc3C)cn2)s1 [Compound 247] cannot be ordered by activation at 10 µM: < 30% for the first, < 30% for the second.

Cc1ccc2sc(OCCN(C)C(=O)Cn3cc(NC(=O)CCNc4ccc(F)nc4C)cn3)nc2c1 [Compound 246] and Cc1ccc(OCCN(C)C(=O)Cn2cc(NC(=O)C3(CNc4ccc(F)nc4C)CC3)cn2)cc1 [Compound 293, 1-(((6-fluoro-2-methylpyridin-3-yl)amino)methyl)-N-(1-(2-(methyl (2-(p-tolyloxy)ethyl)amino)-2-oxoethyl)-1H-pyrazol-4-yl)cyclopropane-1-carboxamide] cannot be ordered by activation at 10 µM: < 30% for the first, < 30% for the second.

Cc1ccc(OCCN(C)C(=O)Cn2cc(NC(=O)CCNC(=O)c3ncc(F)cn3)cn2)cc1 [Compound 248, 5-Fluoro-N-[3-[[1-[2-[methyl-[2-(4-methylphenoxy)ethyl]amino]-2-oxo-ethyl]pyrazol-4-yl]amino]-3-oxo-propyl]pyrimidine-2-carboxamide] and Cc1ccc(OCCN(C)C(=O)Cn2cc(NC(=O)CNC(=O)c3ncc(F)cn3)cn2)cc1 [Compound 249] cannot be ordered by activation at 10 µM: < 30% for the first, < 30% for the second.

Cc1ccc(OCCN(C)C(=O)Cn2cc(NC(=O)CCNc3c(F)cncc3C3CC3)cn2)cc1 [Compound 250, 3-((3-cyclopropyl-5-fluoropyridin-4-yl)amino)-N-(1-(2-(methyl(2-(p-tolyloxy)ethyl)amino)-2-oxoethyl)-1H-pyrazol-4-yl)propanamide] and C=Cc1cncc(F)c1NCCC(=O)Nc1cnn(CC(=O)N(C)CCOc2ccc(C)cc2)c1 [Compound 251] cannot be ordered by activation at 10 µM: > 50% for the first, > 50% for the second.

Compared with COC(=O)Nc1cccc(NCCC(=O)Nc2cnn(CC(=O)N(C)CCOc3ccc(C)cc3)c2)n1 [Compound 253], COC(=O)Nc1cccc(OCCC(=O)Nc2cnn(CC(=O)N(C)CCOc3ccc(C)cc3)c2)n1 [Compound 261, methyl (6-(3-((1-(2-(methyl(2-(p-tolyloxy)ethyl)amino)-2-oxoethyl)-1H-pyrazol-4-yl)amino)-3-oxopropoxy)pyridin-2-yl)carbamate] is higher in activation at 10 µM: < 30% for the first, 30 to 50% for the second.

Going from C=C(C)c1cncc(F)c1NCCC(=O)Nc1cnn(CC(=O)N(C)CCOc2ccc(C)cc2)c1 [Compound 254] to Cc1ccc(OCCN(C)C(=O)Cn2cc(NC(=O)CCNc3ccc(O)nc3)cn2)cc1 [Compound 255], the activation at 10 µM falls from > 50% to < 30%.

Cc1ccc(OCC(C)(C)N(C)C(=O)Cn2cc(NC(=O)CCNc3ccnc(F)n3)cn2)cc1 [Compound 256] and Cc1ccc(OC[C@H](C)N(C)C(=O)Cn2cc(NC(=O)CCNc3ccnc(F)n3)cn2)cc1 [Compound 264] cannot be ordered by activation at 10 µM: > 50% for the first, > 50% for the second.

Cc1ccc(OCCN(C)C(=O)Cn2cc(NC(=O)CCNc3cncnc3C(C)C)cn2)cc1 [Compound 257] and Cc1ccc(OCCN(C)C(=O)Cn2cc(NC(=O)CCNc3ccnc(O)n3)cn2)cc1 [Compound 260, 3-((2-hydroxypyrimidin-4-yl)amino)-N-(1-(2-(methyl(2-(p-tolyloxy)ethyl)amino)-2-oxoethyl)-1H-pyrazol-4-yl)propanamide] cannot be ordered by activation at 10 µM: < 30% for the first, < 30% for the second.

First: Cc1ccc(OCCN(C)C(=O)Cn2cc(NC(=O)CNC(=O)c3ccncc3)cn2)cc1 [Compound 259]
Second: COC(=O)Nc1cc(OCCC(=O)Nc2cnn(CC(=O)N(C)CCOc3ccc(C)cc3)c2)ccn1 [Compound 262]
The activation at 10 µM of the first is lower: < 30% for the first, 30 to 50% for the second.

Cc1cc(OCCN(C)C(=O)Cn2cc(NC(=O)CCNc3ccnc(F)n3)cn2)no1 [Compound 263] and CN(CCOc1cc(C(F)F)on1)C(=O)Cn1cc(NC(=O)CCNc2ccnc(F)n2)cn1 [Compound 272] cannot be ordered by activation at 10 µM: < 30% for the first, < 30% for the second.

First: CN(CCOc1ccc(C(F)(F)F)cn1)C(=O)Cn1cc(NC(=O)CCNc2ccnc(O)n2)cn1 [Compound 265]
Second: CN(CCOc1ccc(C(F)(F)F)cn1)C(=O)Cn1cc(NC(=O)CCNc2ccnc(F)n2)cn1 [Compound 267]
The activation at 10 µM of the first is lower: < 30% for the first, 30 to 50% for the second.

Going from Cc1ccc(OC[C@@H](C)N(C)C(=O)Cn2cc(NC(=O)CCNc3ccnc(O)n3)cn2)cc1 [Compound 266] to Cc1ccc(OC[C@@H](C)N(C)C(=O)Cn2cc(NC(=O)CCNc3ccnc(F)n3)cn2)cc1 [Compound 268], the activation at 10 µM rises from < 30% to > 50%.

CC(C)c1cncc(F)c1NCCC(=O)Nc1cnn(CC(=O)N(C)CCOc2ccc(C(F)(F)F)cn2)c1 [Compound 269] and CC(C)c1cncc(F)c1OCCC(=O)Nc1cnn(CC(=O)N(C)CCOc2ccc(OC(F)(F)F)cn2)c1 [Compound 279] cannot be ordered by activation at 10 µM: > 50% for the first, > 50% for the second.

First: Cc1ccc(OC[C@@H](C)N(C)C(=O)Cn2cc(NC(=O)CCNc3nccc(F)n3)cn2)cc1 [Compound 270]
Second: Cc1ccc(OCCN(C)C(=O)Cn2cc(NC(=O)CCNc3cnc4c(c3)OCO4)cn2)cc1 [Compound 295, 3-([1, 3]dioxolo[4,5-b]pyridin-6-ylamino)-N-(1-(2-(methyl (2-(p-tolyloxy)ethyl)amino)-2-oxoethyl)-1H-pyrazol-4-yl)propanamide]
The activation at 10 µM of the first is lower: 30 to 50% for the first, > 50% for the second.

CN(CCOc1cc(C(F)F)on1)C(=O)Cn1cc(NC(=O)CCNc2nccc(F)n2)cn1 [Compound 271] and COc1cc(F)ccc1OCCN(C)C(=O)Cn1cc(NC(=O)CCNc2ncccn2)cn1 [Compound 282, N-(1-(2-((2-(4-fluoro-2-methoxyphenoxy)ethyl)(methyl)amino)-2-oxoethyl)-1H-pyrazol-4-yl)-3-(pyrimidin-2-ylamino)propanamide] cannot be ordered by activation at 10 µM: < 30% for the first, < 30% for the second.

Cc1ccc(OCCN(C)C(=O)Cn2cc(NC(=O)CCOc3cccnc3NS(C)(=O)=O)cn2)cc1 [Compound 273, N-(1-(2-(methyl(2-(p-tolyloxy)ethyl)amino)-2-oxoethyl)-1H-pyrazol-4-yl)-3-((2-(methylsulfonamido)pyridin-3-yl)oxy)propanamide] and COc1cc(NS(=O)(=O)CC(=O)Nc2cnn(CC(=O)N(C)CCOc3ccc(C)cc3)c2)ccn1 [Compound 285, 2-(4-(2-(N-(2-methoxypyridin-4-yl)sulfamoyl)acetamido)-1H-pyrazol-1-yl)-N-methyl-N-(2-(p-tolyloxy)ethyl)acetamide] cannot be ordered by activation at 10 µM: < 30% for the first, < 30% for the second.

Compared with Cc1ccc(OCCN(C)C(=O)Cn2cc(NC(=O)COc3c(F)cncc3C(C)C)cn2)cc1 [Compound 274, 2-(4-(2-((3-fluoro-5-isopropylpyridin-4-yl)oxy)acetamido)-1H-pyrazol-1-yl)-N-methyl-N-(2-(p-tolyloxy)ethyl)acetamide], CC(C)c1cncc(F)c1OCCC(=O)Nc1cnn(CC(=O)N(C)CCOc2ccc(C(F)(F)F)nc2)c1 [Compound 277] is higher in activation at 10 µM: < 30% for the first, > 50% for the second.

First: CC(C)c1cncc(F)c1OCCC(=O)Nc1cnn(CC(=O)N(C)CCOc2cnc(C(F)(F)F)cn2)c1 [Compound 278]
Second: Cc1ccc(OCCN(C)C(=O)Cn2cc(NC(=O)CCNc3ncc(-c4ncc(C)o4)cn3)cn2)cc1 [Compound 294, N-(1-(2-(methyl (2-(p-tolyloxy)ethyl)amino)-2-oxoethyl)-1H-pyrazol-4-yl)-3-((5-(5-methyloxazol-2-yl)pyrimidin-2-yl)amino)propanamide]
The activation at 10 µM of the first is higher: > 50% for the first, < 30% for the second.

COc1cc(OCCN(C)C(=O)Cn2cc(NC(=O)CCNc3ncccn3)cn2)ccc1C [Compound 283] and COc1cc(C)ccc1OCCN(C)C(=O)Cn1cc(NC(=O)CCNc2ncccn2)cn1 [Compound 284] cannot be ordered by activation at 10 µM: < 30% for the first, < 30% for the second.

First: Cc1ccc(OCCN(C)C(=O)Cn2cc(NC(=O)CCNc3ccc4c(n3)OCO4)cn2)cc1 [Compound 286, 3-([1,3]dioxolo[4,5-b]pyridin-5-ylamino)-N-(1-(2-(methyl (2-(p-tolyloxy)ethyl)amino)-2-oxoethyl)-1H-pyrazol-4-yl)propanamide]
Second: Cc1ccc(OCCN(C)C(=O)Cn2cc(NC(=O)CCNc3cc4c(cn3)OCO4)cn2)cc1 [Compound 291]
The activation at 10 µM of the first is higher: > 50% for the first, 30 to 50% for the second.

Compared with Cc1ccc(OCCN(C)C(=O)Cn2cc(NC(=O)COc3ccc4ccccc4n3)cn2)cc1 [Compound 288], Cc1ccc(OCCN(C)C(=O)Cn2cc(NC(=O)COc3cc4ccccn4n3)cn2)cc1 [Compound 289] is higher in activation at 10 µM: < 30% for the first, > 50% for the second.

In the case of Cc1ccc(OCCN(C)C(=O)Cn2cc(NC(=O)CCNc3ccc4c(c3)OC(F)(F)O4)cn2)cc1 [Compound 290], the activation at 10 µM is reported as < 30%.

Same assay, conditions: 18 h, read-out: Activity (IRE1-XBP1s activation, luminescence as % signal relative to thapsigargin, % Tg)

Cc1ccc(OCCN(C)C(=O)Cn2cc(NC(=O)C(C)(C)C(=O)Nc3ncc(F)cn3)cn2)cc1 [Compound 258, N1-(5-fluoropyrimidin-2-yl)-2,2-dimethyl-N3-(1-(2-(methyl(2-(p-tolyloxy)ethyl)amino)-2-oxoethyl)-1H-pyrazol-4-yl)malonamide] and Cc1ccc(OCCN(C)C(=O)Cn2cc(NC(=O)COc3cccc4cccnc34)cn2)cc1 [Compound 287, N-methyl-2-(4-(2-(quinolin-8-yloxy)acetamido)-1H-pyrazol-1-yl)-N-(2-(p-tolyloxy)ethyl)acetamide] cannot be ordered by activation at 10 µM: < 30% for the first, < 30% for the second.
